System: CD34+ cells
Assay: SDF-1 transwell migration assay
Format: cell-based
Details: CD34+ cells treated 4 hours at 37° C. at 10 μM, washed; 50 ng/mL SDF1 in lower chamber, 2.5 hours; compared to DMSO control
Experimental: Transwell migration assays were performed using 96-well chemotaxis chambers, […] pore size polycarbonate membrane (Corning Inc., Corning, N.Y.) in accordance with manufacturer's instructions. Briefly, CD34^+ cells were then treated for 4 hours at 37° C. with 16,16-dimethyl PGE2 (dmPGE2), dmPGE2 and glucocorticoid, or DMSO control at a concentration of 10 μM in StemSpan® media (StemCell Technology, Vancouver, Canada). The cells were then washed by centrifugation (300 g for 10 minutes) and resuspended in transwell assay buffer (Phenol Red Free RPMI media (Mediatech), 0.5% lipid free BSA (Sigma-Aldrich) at a concentration of 40,000-60,000 cells/75 μl.
To test the duration of the treatment effects, one portion of treated cells was washed by centrifugation (300 g for 10 minutes) and resuspended in StemSpan® media for 4 hours at 37° C. without dmPGE2, glucocorticoids, or DMSO and then washed again by centrifugation (300 g for 10 minutes) and resuspended in transwell assay buffer (Phenol Red Free RPMI media (Mediatech), 0.5% lipid free BSA (Sigma-Aldrich) at a concentration of 40,000-60,000 cells/75 μl.
Seventy-five μl of cell suspension was added to the upper chamber of the plate, while 235 μl of transwell assay media containing 0 or 50 ng/ml SDF 1α (R&D system, Minneapolis, Minn.) was added to the bottom well. […]

CCCCC(C)(C)[C@H](O)/C=C/[C@H]1[C@H](O)CC(=O)[C@@H]1C/C=C\CCCC(=O)O [dmPGE2, 16,16-dimethyl PGE2]
SDF1-driven cell migration (% of cells added): increased SDF1-driven cell migration compared to the DMSO control
